ChEMBL document CHEMBL5316338, “Discovery of Novel PTP1B Inhibitors with Once-Weekly Therapeutic Potential for Type 2 Diabetes: Design, Synthesis, and In Vitro and In Vivo Investigations of BimBH3 Peptide Analogues” (J Med Chem, 2023)
The source made the active and inactive calls. No cut-off for these calls is given here. Square brackets hold non-standard residues; d marks the D form. Peptide text beside a SMILES is read from it. * marks the point of attachment. ξ: configuration not given here. C22 diacid = O=C(O)CCCCCCCCCCCCCCCCCCCCC(=O)*; ξR = N=C(N)NCCCC(N)C(=O)O

How the values were obtained:
[1] = molecular target: T1, Tyrosine-protein phosphatase non-receptor type 1 (Homo sapiens) (UniProt P18031); assay: Inhibition of N-terminal His tagged recombinant human PTP1B expressed in Escherichia coli using pNPP as substrate assessed as substrate hydrolysis at 40 umol/L relative to control; conditions: dose 40.0 µmol/L
T1 sequence (whole entry): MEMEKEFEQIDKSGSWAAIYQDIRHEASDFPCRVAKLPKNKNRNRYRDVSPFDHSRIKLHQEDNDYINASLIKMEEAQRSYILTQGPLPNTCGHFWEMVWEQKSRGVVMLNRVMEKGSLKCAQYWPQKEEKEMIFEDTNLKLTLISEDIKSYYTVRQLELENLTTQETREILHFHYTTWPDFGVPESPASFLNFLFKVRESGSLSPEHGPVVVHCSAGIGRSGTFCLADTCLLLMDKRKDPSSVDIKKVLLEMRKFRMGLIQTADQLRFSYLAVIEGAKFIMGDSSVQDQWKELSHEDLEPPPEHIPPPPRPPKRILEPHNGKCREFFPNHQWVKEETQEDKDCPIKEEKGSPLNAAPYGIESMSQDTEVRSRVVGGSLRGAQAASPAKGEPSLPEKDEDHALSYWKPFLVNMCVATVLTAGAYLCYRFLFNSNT

[2] = molecular target: T2, Tyrosine-protein phosphatase non-receptor type 1 (Homo sapiens, UniProt P18031); assay: Inhibition of N-terminal His tagged recombinant human PTP1B expressed in Escherichia coli using pNPP as substrate assessed as substrate hydrolysis
T2 sequence (P18031 whole entry): T1 sequence (whole entry)

[3] = molecular target: T3, Tyrosine-protein phosphatase non-receptor type 2 (Homo sapiens, UniProt P17706); assay: Inhibition of recombinant human TC-PTP (1 to 314 residues) expressed in baculovirus infected insect cells using pNPP as substrate assessed as substrate hydrolysis; parameters: species or system Insect cell
T3 sequence (P17706 whole entry): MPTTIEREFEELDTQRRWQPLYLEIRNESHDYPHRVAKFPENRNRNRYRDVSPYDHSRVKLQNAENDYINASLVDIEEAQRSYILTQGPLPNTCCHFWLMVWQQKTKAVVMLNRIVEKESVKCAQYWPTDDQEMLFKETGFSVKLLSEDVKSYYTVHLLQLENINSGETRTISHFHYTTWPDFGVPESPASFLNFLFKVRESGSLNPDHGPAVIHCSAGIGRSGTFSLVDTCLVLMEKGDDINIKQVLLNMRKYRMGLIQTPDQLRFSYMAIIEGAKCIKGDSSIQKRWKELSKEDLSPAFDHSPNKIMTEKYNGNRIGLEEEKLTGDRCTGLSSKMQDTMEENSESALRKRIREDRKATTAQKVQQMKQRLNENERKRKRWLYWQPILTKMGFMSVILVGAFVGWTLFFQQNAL

[4] = molecular target: T4, Tyrosine-protein phosphatase non-receptor type 2 (Homo sapiens) (UniProt P17706); assay: Inhibition of recombinant human TC-PTP (1 to 314 residues) expressed in baculovirus infected insect cells using pNPP as substrate assessed as substrate hydrolysis at 50 umol/L relative to control; conditions: Insect cell, dose 50.0 µmol/L
T4 sequence (whole entry): T3 sequence (P17706 whole entry)

[5] = species: Homo sapiens; assay: Selectivity index, ratio of IC50 for inhibition of recombinant human TC-PTP (1 to 314 residues) expressed in baculovirus infected insect cells to IC50 for inhibition of N-terminal His-tagged recombinant human PTP1B expressed in Escherichia coli
[6] = system: Proteinase K; assay: Stability of compound assessed as Proteinase K (unknown origin) mediated compound degradation by measuring half-life by HPLC analysis; type: ADME
[7] = system: Pepsin; assay: Stability of compound assessed as Pepsin (unknown origin) mediated compound degradation by measuring half-life by HPLC analysis; type: ADME; conditions: human
[8] = molecular target: chymotrypsin (Homo sapiens, UniProt P17538+P40313+Q6GPI1+Q99895); assay: Stability of compound assessed as chymotrypsin (unknown origin) mediated compound degradation by measuring half-life by RP-HPLC analysis; type: ADME, protein assay
[9] = molecular target: T5, carboxypeptidase A (Homo sapiens, UniProt P15085); assay: Stability of compound assessed as carboxypeptidase A (unknown origin) mediated compound degradation by measuring half-life by RP-HPLC analysis; type: ADME
T5 sequence (P15085 whole entry): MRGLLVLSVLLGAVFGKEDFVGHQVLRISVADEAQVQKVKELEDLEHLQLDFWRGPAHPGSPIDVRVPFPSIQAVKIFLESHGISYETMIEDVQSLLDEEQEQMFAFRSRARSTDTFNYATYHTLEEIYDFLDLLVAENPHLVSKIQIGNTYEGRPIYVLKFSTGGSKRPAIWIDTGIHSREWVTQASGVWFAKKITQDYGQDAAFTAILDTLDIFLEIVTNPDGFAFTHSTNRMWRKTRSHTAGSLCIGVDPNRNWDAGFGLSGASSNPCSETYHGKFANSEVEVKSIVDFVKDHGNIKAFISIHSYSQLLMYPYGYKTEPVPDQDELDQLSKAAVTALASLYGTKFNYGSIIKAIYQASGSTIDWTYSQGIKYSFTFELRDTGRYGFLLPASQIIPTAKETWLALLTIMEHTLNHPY

[10] = Stability of compound assessed as Proteinase K (unknown origin) mediated compound degradation by measuring fold change of half-life by HPLC analysis relative to BimBH312-mer peptide; type: ADME
[11] = Stability of compound assessed as Pepsin (unknown origin) mediated compound degradation by measuring fold change of half-life by HPLC analysis relative to BimBH312-mer peptide; type: ADME; conditions: human
[12] = molecular target: Chymotrypsin (Homo sapiens, UniProt Q99895+P17538+P40313+Q6GPI1); assay: Stability of compound assessed as chymotrypsin (unknown origin) mediated compound degradation by measuring fold change of half-life by RP-HPLC analysis relative to BimBH312-mer peptide; type: ADME, protein assay
[13] = molecular target: T6, Carboxypeptidase A1 (Homo sapiens, UniProt P15085); assay: Stability of compound assessed as carboxypeptidase A (unknown origin) mediated compound degradation by measuring fold change of half-life by RP-HPLC analysis relative to BimBH312-mer peptide; type: ADME
T6 sequence (P15085 whole entry): T5 sequence (P15085 whole entry)

[14] = system: Mus musculus; assay: Antidiabetic activity against C57BL/Ks db/db mouse assessed as redcution in fasting blood glucose level at 1 umol/kg administered subcutaneously and measured immediately by glucometer analysis (reference value: 19.0 +/- 2.7 […]); type: functional; conditions: dose 1 µmol/kg; route sc
[15] = system: Mus musculus; assay: Antidiabetic activity against C57BL/Ks db/db mouse assessed as redcution in fasting blood glucose level at 1 umol/kg, sc administered once a week and measured on day 8 by glucometer analysis (reference value: 27.7 +/- 3.7 […]); type: functional; conditions: dose 1 µmol/kg, time 8 day
[16] = system: Mus musculus; assay: Antidiabetic activity against C57BL/Ks db/db mouse assessed as redcution in fasting blood glucose level at 1 umol/kg, sc administered once a week and measured on day 15 by glucometer analysis (reference value: 27.3 +/- 2.4 […]); type: functional; conditions: dose 1 µmol/kg, time 15 day
[17] = system: Mus musculus; assay: Antidiabetic activity against C57BL/Ks db/db mouse assessed as redcution in fasting blood glucose level at 1 umol/kg, sc administered once a week and measured on day 22 by glucometer analysis (reference value: 27.4 +/- 1.8 […]); type: functional; conditions: dose 1 µmol/kg, time 22 day
[18] = system: Mus musculus; assay: Antidiabetic activity against C57BL/Ks db/db mouse assessed as redcution in fasting blood glucose level at 1 umol/kg, sc administered once a week and measured on day 24 by glucometer analysis (reference value: 30.2 +/- 3.2 […]); type: functional; conditions: dose 1 µmol/kg, time 24 day
[19] = system: Mus musculus; assay: Antidiabetic activity against C57BL/Ks db/db mouse assessed as redcution in fasting blood glucose level at 1 umol/kg, sc administered once a week and measured on day 26 by glucometer analysis (reference value: 31.4 +/- 2.2 […]); type: functional; conditions: dose 1 µmol/kg, time 26 day
[20] = system: Mus musculus; assay: Antidiabetic activity against C57BL/Ks db/db mouse assessed as redcution in fasting blood glucose level at 1 umol/kg, sc administered once a week and measured on day 28 by glucometer analysis (reference value: 32.4 +/- 1.1 […]); type: functional; conditions: dose 1 µmol/kg, time 28 day
[21] = system: Mus musculus; assay: Antidiabetic activity against over-night fasted C57BL/ks db/db mouse assessed as suppression of increased blood glucose concentration at 1 uM/kg, sc pretreated with compound for 4 weeks followed by oral glucose stimulation and measured upto 120 mins by oral glucose tolerance test; type: functional, organism-based; conditions: time 40440.0 min
[22] = system: Mus musculus; assay: Antidiabetic activity against over-night fasted C57BL/ks db/db mouse assessed as suppression of increased blood glucose concentration at 1 uM/kg, sc pretreated with compound for 4 weeks followed by insulin stimulation and measured for 90 mins by insulin tolerance test; type: functional, organism-based; conditions: time 40410.0 min
[23] = system: Mus musculus; assay: Antidiabetic activity against sc dosed C57BL/Ks db/db mouse assessed as reduction in serum insulin level at 1 umol/kg by ELISA analysis; type: functional, organism-based; conditions: dose 1.0 µmol/kg
[24] = system: Mus musculus; assay: Antidiabetic activity against sc dosed C57BL/Ks db/db mouse assessed as reduction in C-peptide level at 1 umol/kg by ELISA analysis; type: functional, organism-based; conditions: dose 1.0 µmol/kg
[25] = system: Mus musculus; assay: Antidiabetic activity against sc dosed C57BL/Ks db/db mouse assessed as reduction in glucagon level at 1 umol/kg by ELISA analysis; type: functional, organism-based; conditions: dose 1.0 µmol/kg

- inhibition [1]: > 50%
- IC50 [2]: 200 nM
- IC50 [3]: > 50000 nM
- inhibition [4]: < 50%
- half-life [6]: 0.51 h
- half-life [7]: 1.41 h
- half-life [8]: 6.81 h
- half-life [9]: 1.28 h
- fold change (FC) [10]: 10.2
- fold change (FC) [11]: 64.1
- fold change (FC) [12]: 158.4
- fold change (FC) [13]: 40
Structure (SMILES): CC[C@H](C)[C@H](NC(=O)CCCCCCCCCCCCCCCCCCCCC(=O)O)C(=O)N[C@@H](C)C(=O)N[C@@H](CCC(N)=O)C(=O)N[C@@H](CCC(=O)O)C(=O)N[C@@H](CC(C)C)C(=O)N[C@@H](CCCNC(=N)N)C(=O)NC(CCCNC(=N)N)C(=O)N[C@H](C(=O)NCC(=O)N[C@@H](CC(=O)O)C(=O)N[C@@H](CCC(=O)O)C(=O)N[C@@H](Cc1ccccc1)C(=O)O)[C@@H](C)CC (stereo not given in full) ({C22 diacid}-IAQELR[ξR]IGDEF-OH)
- Ratio IC50 [5]: > 250
- Fasting blood glucose level [14]: 19.7 mmol/L
- Fasting blood glucose level [15]: 11.5 mmol/L
- Fasting blood glucose [16]: 11 mmol/L
- Fasting blood glucose level [17]: 11.4 mmol/L
- Fasting blood glucose level [18]: 16 mmol/L
- Fasting blood glucose level [19]: 19.7 mmol/L
- Fasting blood glucose level [20]: 17 mmol/L
- Activity [21]: Active
- Activity [22]: Active
- Activity [23]: Active
- Activity [24]: Active
- Activity [25]: Active
